Experimental findings from ChEMBL document CHEMBL3872237, “Nitric oxide-donating derivatives of hederacolchiside A1: Synthesis and biological evaluation in vitro and in vivo as potential anticancer agents” (Bioorg Med Chem Lett, 2017) are described below.

Data set [1] is described as follows: Growth inhibition of human SMMC7721 cells after 48 hrs by MTT assay. It counts as functional, cell-based. The note with it: SMMC-7721, 48 h.
Data set [2] is described as follows: Growth inhibition of human U251 cells after 48 hrs by MTT assay. It is filed as functional, cell-based. The note with it: U-251, 48 h. A general note: Tetrazolium dyes change colour on reduction, which living cells bring about.
Data set [3] in a line: Growth inhibition of human NCI-H460 cells after 48 hrs by MTT assay. It counts as functional, cell-based. The note with it: NCI-H460, 48 h.
Data set [4] in a line: Growth inhibition of human HCT116 cells after 48 hrs by MTT assay. It counts as functional, cell-based. Particulars: HCT-116, 48 h; call rule not given here.
Data set [5] can be described thus: Induction of NO release in DMSO incubated up to 6 hrs by Griess assay. It counts as physicochemical.
The nature of data set [6]: Antiproliferative activity against human NCI-H460 cells after 48 hrs by resazurin reduction assay. It is filed as functional, cell-based. Particulars: NCI-H460, 48 h.
Data set [7] in a line: Haemolytic activity in New Zealand rabbit erythrocytes after 60 mins. It is filed as ADME, cell-based, Oryctolagus cuniculus, Erythrocyte. Particulars: read-out: HD50.
Data set [8] has as its system Mus musculus. Briefly: Acute toxicity in mouse assessed as death at <8 mg/kg measured up to 1 hr. It counts as organism-based. The note with it: in vivo.
Data set [9] in a line: Solubility of the compound. It counts as physicochemical.
The nature of data set [10]: Antiproliferative activity against human HCT116 cells after 48 hrs by resazurin reduction assay. It is filed as functional, cell-based. The note with it: HCT-116, 48 h.
A short description of data set [11]: Antiproliferative activity against human U251 cells after 48 hrs by resazurin reduction assay. It is filed as functional, cell-based. Particulars: U-251, 48 h.
A short description of data set [12]: Antitumor activity against mouse H22 cells xenografted in nude Kunming mouse assessed as tumor growth inhibition at 6 mg/kg/3 days for 5 times administered iv measured 24 hrs post last dose relative to control. It is filed as functional. The note with it: read-out: TGI.
Data set [13] in a line: Antiproliferative activity against human SMMC7721 cells after 48 hrs by resazurin reduction assay. It counts as functional, cell-based. The note with it: SMMC-7721, 48 h. Background: The colour change of resazurin is a common sign of viable cells or microbes.
Data set [14] concerns Mus musculus. Briefly: Acute toxicity in mouse assessed as death at >168 mg/kg measured after 14 days. Particulars: in vivo, 336 h. It counts as organism-based.
Data set [15] is described as follows: Antitumor activity against mouse H22 cells xenografted in nude Kunming mouse assessed as tumor growth inhibition at 20 mg/kg/day, iv for 14 days measured 24 hrs post last dose relative to control. It counts as functional. Particulars: read-out: TGI.
The test system of data set [16] is Mus musculus. The experiment in a line: Toxicity in nude Kunming mouse xenografted with mouse H22 cells assessed as mouse death at 10 to 20 mg/kg/day, iv for 14 days measured 24 hrs post last dose. It is filed as organism-based. The note with it: in vivo.
Data set [17] is described as follows: Antitumor activity against mouse H22 cells xenografted in nude Kunming mouse assessed as tumor growth inhibition at 10 mg/kg/day, iv for 14 days measured 24 hrs post last dose relative to control. It is filed as functional. Particulars: read-out: TGI.

For the molecule `C[C@@H]1O[C@@H](O[C@H]2C(O[C@H]3CC[C@]4(C)[C@H]5CC=C6[C@@H]7CC(C)(C)CC[C@]7(C(=O)OC/C=C/COc7no[n+]([O-])c7S(=O)(=O)c7ccccc7)CC[C@@]6(C)[C@]5(C)CC[C@H]4C3(C)C)OC[C@H](O[C@@H]3O[C@H](CO)[C@@H](O)[C@H](O)[C@H]3O)[C@@H]2O)[C@H](O)[C@H](O)[C@H]1O` (single isomer, unassigned), the IC50 is 4.5 µM in [1], 3.1 µM in [2], 6.8 µM in [3] and 10.1 µM in [4].
Take `C[C@@H]1O[C@@H](O[C@H]2C(O[C@H]3CC[C@]4(C)[C@H]5CC=C6[C@@H]7CC(C)(C)CC[C@]7(C(=O)OCCCCOc7no[n+]([O-])c7S(=O)(=O)c7ccccc7)CC[C@@]6(C)[C@]5(C)CC[C@H]4C3(C)C)OC[C@H](O[C@@H]3O[C@H](CO)[C@@H](O)[C@H](O)[C@H]3O)[C@@H]2O)[C@H](O)[C@H](O)[C@H]1O` (single isomer, unassigned): the IC50 in [1] came to 2.6 µM; in [2] it was 2.1 µM; in data set [3] it was 3.4 µM; in [4] it was 7.3 µM. Also, the result in data set [5] was Active.
As to `C[C@@H]1O[C@@H](O[C@H]2C(O[C@H]3CC[C@]4(C)[C@H]5CC=C6[C@@H]7CC(C)(C)CC[C@]7(C(=O)O)CC[C@@]6(C)[C@]5(C)CC[C@H]4C3(C)C)OC[C@H](O[C@@H]3O[C@H](CO)[C@@H](O)[C@H](O)[C@H]3O)[C@@H]2O)[C@H](O)[C@H](O)[C@H]1O` (single isomer, unassigned) [HEDERACOLCHISIDE A1], the IC50 in data set [1] was 2.8 µM; in data set [2], 2.2 µM; in data set [3] it was 3.7 µM; in data set [6] it was 2.2 to 8.4 µM; in [4], 8.4 µM; in data set [10], 2.2 to 8.4 µM. The IC50 in [11] and in data set [13] was 2.2 to 8.4 µM each time. The HC50 at 1 h in [7] was 6.7 µM. Further, the Activity result in data set [8] is listed as “Toxic”. The solubility entry in data set [9] was “Insoluble”. In addition, the inhibition in vivo at 6 mg/kg in [12] stood at 47.5%.
As for `C[C@@H]1O[C@@H](O[C@H]2[C@H](O[C@H]3CC[C@]4(C)[C@H]5CC=C6[C@@H]7CC(C)(C)CC[C@]7(C(=O)OCCCOc7no[n+]([O-])c7S(=O)(=O)c7ccccc7)CC[C@@]6(C)[C@]5(C)CC[C@H]4C3(C)C)OC[C@H](O[C@@H]3O[C@H](CO)[C@@H](O)[C@H](O)[C@H]3O)[C@@H]2O)[C@H](O)[C@H](O)[C@H]1O`, the concentration for half-maximal inhibition (IC50) in [1] was 1.9 µM; in data set [2], 1.6 µM; in [3] it was 3.1 µM; in data set [4], 6.5 µM. For the same molecule, the figures for the Activity result in data set [14], in data set [5] and in data set [16] were “Non-Toxic”, “Active” and “Non-Toxic”, respectively. In addition, in data set [15], the inhibition in vivo at 20 mg/kg/day came out at 51.5%. In data set [7], the HC50 at 1 h was 280 µM. For the same molecule, the solubility result in data set [9] is “Insoluble”. For the same molecule, in data set [17], the inhibition in vivo at 10 mg/kg/day was 38.3%.
`O=[N+]([O-])OCC(CO[N+](=O)[O-])O[N+](=O)[O-]` [NITROGLYCERIN]: in data set [5], the result was Active.
Turning to `CC(CCOc1no[n+]([O-])c1S(=O)(=O)c1ccccc1)OC(=O)[C@]12CCC(C)(C)C[C@H]1C1=CC[C@@H]3[C@@]4(C)CC[C@H](O[C@@H]5OC[C@H](O[C@@H]6O[C@H](CO)[C@@H](O)[C@H](O)[C@H]6O)[C@H](O)[C@H]5O[C@@H]5O[C@@H](C)[C@H](O)[C@@H](O)[C@H]5O)C(C)(C)[C@@H]4CC[C@@]3(C)[C@]1(C)CC2` (some centres not stated), the IC50 in data set [1] was determined as 3.7 µM; in data set [2], 2.3 µM; in [3], 6.2 µM; in data set [4] it was 11.2 µM.

The term IC50 denotes the concentration at which inhibition is half-maximal. A lower IC50 goes with inhibition by little substance.
